{"source": "paper PMC10153383", "about": "“Pharmacophore Variants of the Macrocyclic Peptide Triazole Inactivator of HIV-1 Env” (Research Square, 2023)", "biological_target": "T1, YU2 gp120 (Human immunodeficiency virus type 1 group M subtype B, UniProt P35961)", "T1 construct": "The DNA for gp120YU-2 in pcDNA3.1 vector for transient transfection; made in house; host or cells: HEK-293F", "type": "binding, HIV-1", "note": "*1 amine or outer side, *2 acyl side, *3 side chain or, on linkers, in order; H or OH if unused. Where a SMILES comes first, the peptide text is derived from it. Bridges are numbered along the chain shown (N, C = ends). [ ]: non-standard residue; d: D form. X1 = O=C([C@@H]1C[C@H](n2cc(-c3ccc(-c4cccs4)cc3)nn2)CN1[*:1])[*:2]; Trp(5-Br) = N[C@@H](Cc1c[nH]c2ccc(Br)cc12)C(=O)O; Trp(1-Me) = Cn1cc(C[C@H](N)C(=O)O)c2ccccc21", "description": "A state-of-the-art Biacore S200 SPR optical biosensor, which can resolve dissociation rates of 0.1–1.0 s^−1, was employed to measure the YU2 gp120 binding kinetics of cPT’s. […] The insets in Fig. 3 show the binding isotherms plotted from the binding signals at steady state, as a function of peptide concentration. Reproducibility of the SPR binding assays was verified by running experiments at gp120 densities ranging from 10 to 29 RU/kDa. […] The calculated apparent (KD), the steady state affinities (eq KD) and experimental Rmax or maximum binding capacities for each gp120 surface are reported.\nSPR experiments were performed on a Biacore S200 biosensor (Cytiva Global Life Sciences Solutions) at 25°C using PBS-P (10 mM Phosphate, 150 mM NaCl, pH 7.4, 0.005% P-20 and 2 or 5%DMSO) as the running and sample buffers. […] The 9 to 10 cPT concentrations were injected in duplicate spanning 1000-fold (~ 0.001 to 2.0 μM) at a flow rate of 75–100 μL/min where associations were monitored for 3 minutes and the final dissociation phase in running buffer monitored for 5 minutes for complete dissociation or by injecting two 9-second pulses of 10 mM glycine pH 2.0 to remove any bound analyte. […]", "data": [{"smiles": "CC[C@H](C)[C@@H]1NC(=O)[C@H](CC(N)=O)NC(=O)[C@@H](N)CC(=O)NCCCC[C@@H](C(N)=O)NC(=O)[C@H](Cc2c[nH]c3ccc(Br)cc23)NC(=O)[C@@H]2C[C@H](n3cc(-c4ccc(-c5cccs5)cc4)nn3)CN2C1=O", "note": "[MG-I-13] (H-DNI[X1][Trp(5-Br)]K-NH2; lactam 1-6; N-terminus and C-terminus assumed)", "values": [{"measurement": "increase in dissociation rate relative to parent peptide", "setting": "SPR, MG-I-13 vs AAR029N2, MG-II-55 vs MG-II-20", "value": 2.5, "unit": "fold"}]}, {"smiles": "CC[C@H](C)[C@@H]1NC(=O)[C@H](CC(N)=O)NC(=O)[C@@H](N)CC(=O)NCCCC[C@@H](C(N)=O)NC(=O)[C@H](Cc2cn(C)c3ccccc23)NC(=O)[C@@H]2C[C@H](n3cc(-c4ccc(-c5cccs5)cc4)nn3)CN2C1=O", "note": "[MG-II-39] (H-DNI[X1][Trp(1-Me)]K-NH2; lactam 1-6; N-terminus and C-terminus assumed)", "values": [{"measurement": "equilibrium binding isotherm KD, fold lower (affinity) versus AAR029N2", "setting": "SPR steady state isotherm, Fig. 3C inset", "value": 5, "unit": "fold"}]}]}
